The text below walks through data of ChEMBL document CHEMBL1150638, “An unusual sesquiterpene derivative from Ferula kuhistanica” (J Nat Prod, 2002).

Assay [1] concerns HCT-116. Briefly: Cytotoxicity against human HCT116 cells after 2 days by MTT assay. Format: functional, cell-based. The settings on record: HCT-116, 48 h. In general terms: Tetrazolium assays rely on reduction of a dye to a coloured formazan, in cell work by metabolically active cells.
Assay [2] has as its system Staphylococcus aureus. As to the kind of experiment: Antibacterial activity against methicillin-sensitive Staphylococcus aureus. It counts as functional, organism-based.
The subject of assay [3] is Staphylococcus aureus. As to the kind of experiment: Antibacterial activity against methicillin-resistant Staphylococcus aureus. It counts as functional, organism-based.

pIC50: −log10 of the molar value. Calls of active or inactive are those of the source. The rule behind the calls is not given here.

`CC(=O)CC[C@@]1(C)CC[C@]2(C(C)C)O[C@@H](O)[C@H](OC(=O)c3ccc(O)cc3)[C@H]12` [KUHISTAFERONE] showed a negative logarithm of the IC50 (pIC50) in assay [1] of 3.74. For the same compound, the outcome in assay [2] and in assay [3] was inactive.

The term pIC50 denotes the negative decadic logarithm of the IC50, by convention in mol/L. A high value points to a small IC50.
